Experimental data from patent US10688084B2 (priority 2016, dated 2020).
Like-named read-outs stand apart in the source and are kept apart here.

Tests used:
cyclooxygenase (COX) = assay: COX activity assay (fluorometric kit, peroxidase activity) with skin fibroblast (HSF) cell lysate; assay type: biochemical; details: tested in presence of SC560 or celecoxib
Wistar rats [1] = assay type: in vivo
Protocol: In the study of analgesic properties of the formula I compound, were taken female and male Wistar rats aged 6-7 weeks with a body mass of 180-220 g. The number of animals in each group was 10.
[…] inflammation was modeled in rats by subplantar administration of 0.1 ml of a 1% solution of carrageenin (a sulfated polysaccharide from Irish sea moss) into the right hind paw. The substance was administered intragastrically using a gastric probe.
Inflammatory hyperalgesia (increased pain sensitivity of inflamed tissues in rats) was caused by carrageenin and was assessed by decrease of the pain sensitivity threshold—PST (by PST difference) to mechanical irritation (squeezing) of the paw tissue of the animal before the introduction of carrageenin and 3 hours after it. The measurement was performed on the inflamed paw. Used analgesimeter Ugo Basile S.R.L. (Italy) provides a gradual increased afterload on the rat's inflamed paw until a pain reaction appears (assessed by squeaking of animal or withdrawing the paw). The analyte was administered 2 h after carrageenin administration. […] An increase in the pain response threshold under the influence of the substances under study was expressed in an increase in the force of compression of the limb and characterized the intensity of the analgesic effect of the preparation. After the experiment, animals were euthanized by carbon dioxide inhalation method.
The introduction to rats was carried out in the amount of no more than 1 ml/100 g. The concentration of the resulting solution was 5 mg/ml.
(§1) To prepare a dose of 20 mg/kg, 40 ml of solution with a concentration of 5 mg/ml (50 mg/kg) were taken, transferred to a 100 ml measuring flask with accuracy class A, adjusted to 100 ml with 0.5% water solution of Tween-80 and the suspension was dispersed to a homogeneous consistency using a dispersant.
To prepare a dose of 10 mg/kg, 20 ml of solution with a concentration of 5 mg/ml (50 mg/kg) were taken, transferred to a 100 ml measuring flask with accuracy class A, adjusted to 100 ml with 0.5% aqueous solution of Tween-80 and the suspension was stirred to a homogeneous consistency with a magnetic stirrer MR Hei-Standard (Heidolph, Germany).
as §1, with “5” for “20”, “[…]” for “40”, “stirred” for “dispersed”, “with” for “using”, “magnetic stirrer.” for “dispersant.”

Wistar rats [2] = details: for Number of animals in the group/number of dead animals / LD10 / LD16 / LD84: rat; for Number of animals in the group/number of dead animals: 14 days; for LD10 / LD16 / LD84: intragastric
Protocol: The experiment was performed according to the fixed dose method in Wistar rats of both sexes, 6 animals per group. […] The solvent used was a 0.5% Tween-80 solution (Tween 80—polyoxyethylene, a derivative of sorbitan and oleic acid, a commercially available polymer), which was prepared by dissolving 0.5 g of Tween-80 in 100 ml of distilled water.
The introduction was carried out to animals deprived of food (for a period of not less than 8 hours) with free access to water. The volume of administration was calculated individually for each animal, based on the body mass recorded immediately before the introduction of the substance. Access to the feed was renewed an hour after the introduction. Animals were observed individually after administration for 30 minutes, then at least once per hour for 4 hours, then daily once a day for 14 days. Body mass was recorded immediately before the administration of the preparation to calculate the volume of administration, then once every two days. If the animal died during the study, the time of death was determined and documented as accurately as possible. The animal was weighed and dissected as soon as possible. Dying animals were weighed, euthanized and dissected. Animals were euthanized by inhalation of carbon dioxide. Toxic doses LD10, LD16, LD50 and LD84 were calculated using probit analysis with IBM SPSS Statistics software.
At the end of the experiment, euthanasia and pathomorphological dissection of control and experimental animals were performed.

COc1ccc2cc([C@H](C)C(=O)OCc3cnc(C)c(OC(=O)[C@@H](C)c4ccc5cc(OC)ccc5c4)c3COC(=O)[C@@H](C)c3ccc4cc(OC)ccc4c3)ccc2c1 [Compound of formula I, 3-((S)-2-(6-methoxynaphth-2-yl)propanoiloxy)-4,5-bis (((S)-2-(6-methoxinaphtht-2-yl)propanoiloxy)methyl)-2-methylpyridinium (S)-2-(6-methoxynaphth-2-yl) propanoate]
COX isoform preference (cyclooxygenase (COX)): preferential inhibitory activity against the isoform of COX-2 | Analgesic effect, total/analgesic effect (Wistar rats [1]; females, 5 mg/kg): 10/9 | Paw volume 0 hours (Wistar rats [1]; females, 5 mg/kg): 3.9 ± 1.4 | Paw volume 3 hours (Wistar rats [1]; females, 5 mg/kg): 7.2 ± 3.2 | Analgesic effect, % (Wistar rats [1]; females, 5 mg/kg, control = 100.0): 282.0 ± 125.9% | Analgesic effect, total/analgesic effect (Wistar rats [1]; females, 10 mg/kg): 10/8 | Paw volume 0 hours (Wistar rats [1]; females, 10 mg/kg): 4.3 ± 2.2 | Paw volume 3 hours (Wistar rats [1]; females, 10 mg/kg): 10.5 ± 7.2 | Analgesic effect, % (Wistar rats [1]; females, 10 mg/kg, control = 100.0): 408.2 ± 279.3% | Analgesic effect, total/analgesic effect (Wistar rats [1]; females, 20 mg/kg): 10/9 | Paw volume 0 hours (Wistar rats [1]; females, 20 mg/kg): 4.6 ± 3.3 | Paw volume 3 hours (Wistar rats [1]; females, 20 mg/kg): 9.1 ± 7.4 | Analgesic effect, % (Wistar rats [1]; females, 20 mg/kg, control = 100.0): 353.5 ± 289.7% | Analgesic effect, total/analgesic effect (Wistar rats [1]; females, 50 mg/kg): 10/7 | Paw volume 0 hours (Wistar rats [1]; females, 50 mg/kg): 8.9 ± 5.7 | Paw volume 3 hours (Wistar rats [1]; females, 50 mg/kg): 12.4 ± 6.5 | Analgesic effect, % (Wistar rats [1]; females, 50 mg/kg, control = 100.0): 484.4 ± 251.8% | Dose at which a pronounced anesthetic effect is exhibited (Wistar rats [1]; intragastric): 5 mg/kg | Analgesic effect, total/analgesic effect (Wistar rats [1]; males, 5 mg/kg): 10/7 | Analgesic effect, total/analgesic effect (Wistar rats [1]; males, 10 mg/kg): 10/10 | Analgesic effect, total/analgesic effect (Wistar rats [1]; males, 20 mg/kg): 10/9 | Analgesic effect, total/analgesic effect (Wistar rats [1]; males, 50 mg/kg): 10/8 | Analgesic effect, % (Wistar rats [1]; rat, in vivo, 5 mg/kg): 259.9 ± 229.7% | Paw volume 0 hours (Wistar rats [1]; rat, in vivo, 5 mg/kg): 4.4 ± 2.7 | Paw volume 3 hours (Wistar rats [1]; rat, in vivo, 5 mg/kg): 5.5 ± 2.5 | Analgesic effect, % (Wistar rats [1]; rat, in vivo, 10 mg/kg): 453.7 ± 159.9% | Paw volume 0 hours (Wistar rats [1]; rat, in vivo, 10 mg/kg): 4.2 ± 2.4 | Paw volume 3 hours (Wistar rats [1]; rat, in vivo, 10 mg/kg): 12.0 ± 4.6 | Analgesic effect, % (Wistar rats [1]; rat, in vivo, 20 mg/kg): 418.1 ± 215.7% | Paw volume 0 hours (Wistar rats [1]; rat, in vivo, 20 mg/kg): 6.4 ± 5.7 | Paw volume 3 hours (Wistar rats [1]; rat, in vivo, 20 mg/kg): 12.0 ± 6.2 | Analgesic effect, % (Wistar rats [1]; rat, in vivo, 50 mg/kg): 367.9 ± 220.1% | Paw volume 0 hours (Wistar rats [1]; rat, in vivo, 50 mg/kg): 3.4 ± 2.3 | Paw volume 3 hours (Wistar rats [1]; rat, in vivo, 50 mg/kg): 10.6 ± 6.3 | Dead animals (Wistar rats [2]; 5000 mg/kg intragastric, female, three days later): 1 rat | Clinical observation after administration (Wistar rats [2]; 5000 mg/kg intragastric, symptom disappeared in 20-30 minutes): slight inhibition of the activity of the animal | Body mass increase (Wistar rats [2]; 5000 mg/kg, 2 days after start): 1-4% | Body mass increase (Wistar rats [2]; 5000 mg/kg, 4 days after start): 2-6% | Body mass increase (Wistar rats [2]; 5000 mg/kg, eighth day): 2-8% | Autopsy findings (Wistar rats [2]; 5000 mg/kg, end of experiment): No changes were observed | Body mass increase (Wistar rats [2]; 5000 mg/kg, end of the experiment): 5-13% | Hazard class (GOST 12.1.007-76) (Wistar rats [2]; intragastric administration): 4th hazard class | Number of animals in the group/number of dead animals (Wistar rats [2]; females, 5000 mg/kg intragastric): 6/1 | LD10 (Wistar rats [2]; females): >5000 | LD16 (Wistar rats [2]; females): >5000 | LD84 (Wistar rats [2]; females): >5000 | Number of animals in the group/number of dead animals (Wistar rats [2]; males, 5000 mg/kg intragastric): 6/0 | LD10 (Wistar rats [2]; males): >5000 | LD16 (Wistar rats [2]; males): >5000 | LD84 (Wistar rats [2]; males): >5000
